Data as given in ChEMBL document CHEMBL1201862, “PubChem BioAssay data set” (2004).
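Protocol summary: plate cells (96-well), add compound at 5 concentrations, incubate 48 h, interpolate endpoints linearly. GI50: concentration for 50% inhibition of growth.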 Calls of active or inactive are those of the source. Cut-off read from the data, not from the text of the source: active = GI50 up to about 1.1 µM and inactive = higher.

Legend:
Test in all cases: NCI-60 cell line screen, 48 h
RPMI-8226 = test system: RPMI-8226
SN12C = test system: SN12C
MCF7 = test system: MCF7
HCC 2998 = test system: HCC 2998
IGROV-1 = test system: IGROV-1
HT-29 = test system: HT-29
SNB-75 = test system: SNB-75
LOX IMVI = test system: LOX IMVI
MDA-MB-231 = test system: MDA-MB-231
KM12 = test system: KM12
786-0 = test system: 786-0
UO-31 = test system: UO-31
UACC-62 = test system: UACC-62
NCI-H522 = test system: NCI-H522
SF-295 = test system: SF-295
HCT-116 = test system: HCT-116
OVCAR-8 = test system: OVCAR-8
SF-539 = test system: SF-539
HOP-92 = test system: HOP-92
K562 = test system: K562

Measured: GI50

COC(=O)c1ccccc1/C=C1\Cc2cc3c(cc2C1=O)CCC3
inactive: RPMI-8226 > 100 µM | SN12C > 100 µM | MCF7 40.6 µM | HCC 2998 > 100 µM | IGROV-1 > 100 µM | HT-29 > 100 µM | SNB-75 34.9 µM | LOX IMVI > 100 µM | MDA-MB-231 > 100 µM | KM12 > 100 µM | 786-0 38.4 µM | UO-31 > 100 µM | UACC-62 32.1 µM | NCI-H522 68.9 µM | SF-295 43.5 µM | HCT-116 45 µM | OVCAR-8 > 100 µM | SF-539 > 100 µM

C=CC[C@@H](N)C(=O)N(C)[C@@H](C)[C@@H](O)c1ccccc1
inactive: IGROV-1 82.8 µM | SNB-75 5.77 µM | LOX IMVI > 100 µM | MDA-MB-231 > 100 µM | KM12 > 100 µM | 786-0 > 100 µM | UO-31 > 100 µM | UACC-62 > 100 µM | NCI-H522 12.4 µM | SF-295 > 100 µM | HCT-116 > 100 µM | OVCAR-8 > 100 µM | SF-539 > 100 µM | HOP-92 54.6 µM

COc1ccccc1NC(=S)Nc1cc(C)cc(C)n1
inactive: RPMI-8226 > 100 µM | SN12C > 100 µM | MCF7 > 100 µM | HCC 2998 > 100 µM | IGROV-1 > 100 µM | HT-29 > 100 µM | SNB-75 > 49.4 µM | LOX IMVI > 100 µM | MDA-MB-231 > 100 µM | KM12 > 100 µM | 786-0 > 100 µM | UO-31 > 100 µM | UACC-62 > 100 µM | K562 > 100 µM | SF-295 > 100 µM | HCT-116 > 100 µM | OVCAR-8 > 100 µM | SF-539 > 100 µM

COC(=O)N1N=C(c2ccccc2)C1c1ccccc1 (centres undefined)
inactive: RPMI-8226 26.7 µM | SN12C 42.4 µM | MCF7 28.9 µM | HCC 2998 32.1 µM | HT-29 32.1 µM | SNB-75 36 µM | LOX IMVI 26.2 µM | MDA-MB-231 24.6 µM | KM12 47.4 µM | 786-0 35.2 µM | UO-31 13.7 µM | UACC-62 22 µM | K562 23.8 µM | HCT-116 33.3 µM | OVCAR-8 27.5 µM | SF-539 22.9 µM

O=C(COc1ccc(Cl)c(Cl)c1)N(Cc1ccccc1)Cc1ccc[n+](Cc2ccc(Cl)cc2S(=O)(=O)F)c1
inactive: RPMI-8226 13.3 µM | SN12C > 100 µM | MCF7 46.3 µM | IGROV-1 40.6 µM | HT-29 > 100 µM | SNB-75 > 100 µM | MDA-MB-231 14.8 µM | KM12 23.4 µM | 786-0 > 100 µM | UO-31 > 100 µM | UACC-62 62.1 µM | NCI-H522 94.6 µM | K562 53 µM | SF-295 > 100 µM | HCT-116 > 100 µM | OVCAR-8 > 100 µM | SF-539 12.9 µM | HOP-92 50.8 µM

CC(C)(C)OC(=O)C1C(=O)NC(=O)CC1CC(OCc1ccccc1)C(COCc1ccccc1)OCc1ccccc1 (centres undefined)
inactive: RPMI-8226 3.07 µM | SN12C 25 µM | MCF7 4.51 µM | HCC 2998 3.81 µM | IGROV-1 23.2 µM | HT-29 3.45 µM | LOX IMVI 10.9 µM | 786-0 6.79 µM | UO-31 2.19 µM | K562 5.19 µM | SF-295 8.38 µM | HCT-116 5.36 µM | OVCAR-8 10.3 µM | SF-539 10.9 µM | HOP-92 11.9 µM

Nn1c(S)nnc1-c1ccccc1Nc1ccccc1-c1nnc(S)n1N
inactive: RPMI-8226 41.8 µM | MCF7 > 50 µM | HCC 2998 > 50 µM | IGROV-1 > 50 µM | HT-29 > 50 µM | SNB-75 > 50 µM | LOX IMVI > 50 µM | KM12 > 50 µM | 786-0 > 50 µM | UO-31 > 50 µM | UACC-62 > 50 µM | NCI-H522 > 50 µM | K562 > 50 µM | SF-295 > 50 µM | HCT-116 > 50 µM | OVCAR-8 > 50 µM | SF-539 > 50 µM | HOP-92 > 50 µM

CC1(C)OC(=O)C(C)(C)C(=O)O1
inactive: SN12C > 100 µM | MCF7 > 100 µM | HCC 2998 > 100 µM | IGROV-1 > 100 µM | HT-29 > 100 µM | SNB-75 > 100 µM | LOX IMVI > 100 µM | MDA-MB-231 > 100 µM | KM12 > 100 µM | 786-0 > 100 µM | UO-31 > 100 µM | UACC-62 > 100 µM | NCI-H522 > 100 µM | K562 > 100 µM | SF-295 > 100 µM | HCT-116 > 100 µM | OVCAR-8 > 100 µM | SF-539 > 100 µM

CC(=O)OCC(=O)[C@@]12OC(C)(C)O[C@@H]1C[C@H]1[C@@H]3CC=C4C[C@@H](O)CC[C@]4(C)[C@H]3CC[C@@]12C
inactive: RPMI-8226 59.8 µM | SN12C 43.9 µM | MCF7 > 100 µM | IGROV-1 50.5 µM | HT-29 > 100 µM | SNB-75 13.9 µM | LOX IMVI > 100 µM | MDA-MB-231 61.5 µM | KM12 > 100 µM | 786-0 41.4 µM | UO-31 > 100 µM | UACC-62 > 100 µM | NCI-H522 57.9 µM | K562 > 100 µM | SF-295 33.1 µM | HCT-116 68.1 µM | OVCAR-8 36.7 µM | SF-539 30.8 µM

CC(C)(OCc1ccccc1)c1ccccc1P(c1ccccc1)c1ccccc1
inactive: RPMI-8226 4.04 µM | SN12C 46 µM | MCF7 40.4 µM | IGROV-1 50.1 µM | HT-29 30.1 µM | SNB-75 > 100 µM | MDA-MB-231 65 µM | KM12 23.1 µM | 786-0 66.4 µM | UO-31 87.7 µM | UACC-62 47.5 µM | NCI-H522 42.8 µM | K562 45.3 µM | SF-295 44.8 µM | HCT-116 40 µM | OVCAR-8 39.9 µM | SF-539 > 100 µM | HOP-92 35.2 µM

CC1=CCC(C)=Nc2nc3ccccc3n21
inactive: RPMI-8226 > 100 µM | SN12C > 100 µM | MCF7 > 100 µM | IGROV-1 > 100 µM | HT-29 > 100 µM | LOX IMVI > 100 µM | MDA-MB-231 > 100 µM | KM12 > 100 µM | 786-0 > 100 µM | UO-31 23.2 µM | UACC-62 > 100 µM | NCI-H522 > 100 µM | K562 > 100 µM | SF-295 > 100 µM | HCT-116 > 100 µM | OVCAR-8 > 100 µM | SF-539 > 100 µM | HOP-92 > 100 µM
